{
  "source": "patent US20070104743A1",
  "about": "“Formulations of fispemifene” (HORMOS MEDICAL LTD., priority 2005, published 2007)",
  "key": {"[1]": {"experiment": "Serum concentration of fispemifene in monkeys after administration in two different vehicles", "type": "in vivo", "conditions": "two female Cynomolgus monkeys, single oral dose 500 mg/kg, LC-MS/MS", "protocol": "Serum concentration of fispemifene in monkeys after administration of fispemifene in two different vehicles\nA pilot study on exposure of fispemifene in two female Cynomolgus monkeys ( #05084 and #06170) was carried out. Fispemifene was administered by single oral dosing of 500 mg/kg in two different vehicles, 0.5% carboxymethyl cellulose in water (CMC), and in corn oil. Blood samples were collected 0, 1, 2, 4, 6, 8, 12, 16 and 24 hours after dosing. Concentrations of fispemifene were determined using LC-MS/MS."}, "Solubility in water": {"experiment": "Solubility in water", "type": "physicochemical"}},
  "data": [
    {"compound": "OCCOCCOc1ccc(/C(=C(/CCCl)c2ccccc2)c2ccccc2)cc1", "note": "[Fispemifene, (Z)-2-{2-[4-(4-chloro-1,2-diphenylbut-1-enyl)phenoxy]ethoxy}ethanol]", "values": [
      {"measurement": "fispemifene quantifiable in serum samples after drug administration", "setting": "[1]; CMC or corn oil vehicle, samples 1-24 h", "result": "quantifiable in all serum samples"},
      {"measurement": "serum fispemifene concentration, corn oil vehicle relative to 0.5% CMC in aqueous solution", "setting": "[1]; corn oil vs 0.5% carboxymethyl cellulose in water, 0-24 h", "result": "more than 10 fold"},
      {"measurement": "solubility in water", "setting": "Solubility in water", "result": "only sparingly soluble"}
    ]}
  ]
}
